# According to patent publication US8980848B2, “Flavonoid dimers and their use” (The Hong Kong Polytechnic University, priority 2010, dated 2015):
# Columns and labels:
# [1] = Cytotoxicity of flavonoid dimers, L929 mouse fibroblast; type: cell-based; conditions: mouse, L929 fibroblast cells, IC50 of compound alone, 72 hrs, mouse fibroblast
# Experimental: (§1) (b) Tumor Cell Line Cytotoxicity. The tumor cytotoxicity assays of flavonoid dimers were performed against LCC6, LCC6MDR and L929 cell lines. […] In brief, LCC6, LCC6MDR and L929 cells were seeded into 96-well flat bottom microtiter plate at 1×10^4 cells per well in a final volume of 100 μL media, respectively. A graded dose of flavonoid dimers was added into wells. The plate was incubated at 37° C. for 72 hrs at the atmosphere 5% CO2 in the air. The % of survivors was determined.
# [2] = system: LdAG83 promastigotes (wild type); experiment: In vitro anti-promastigote activity, LdAG83; type: cell-based, Leishmania donovani; conditions: Leishmania donovani, 72 h, read-out: Anti-promastigotes activity (IC50, μM) LdAG83
# Experimental: (§2) Cell Lines and Cell Culture. Promastigotes of Leishmania donovani (wild type LdAG83, pentamidine-resistant LdAG83-PentR50, and SSG-resistant Ld39) and Leishmania major [MHOM/IL/67/JERICHO II (Lm50122), from ATCC] were used in this study.
# (§3) In Vitro Anti-Promastigote Activity. The viability of promastigotes was determined by the Cell Titer 96° Aqueous Assay (Promega) that employs a tetrazolium compound (MTS, 2-(4,5-Dimethylthiazol-2-yl-)-5-[3-(carboxymethoxy)phenyl]-2-(4-sulfophenyl)-2H-tetrazolium) and electron coupling reagent, phenazine methosulfate (PMS).^7 Promastigotes were seeded into 96-well flat bottom microtiter plate at 1×10^5 cells per well in a final volume of 100 μL medium and incubated with a series concentration of synthetic flavonoid dimers or known antileishmanials. The parasites were incubated at 27° C. for 72 hrs. Fresh solution of 2 mg/mL MTS and 0.92 mg/mL PMS were prepared in a ratio of 20:1 (MTS:PMS). After 72 hrs incubation, 10 μL of MTS:PMS mixture was added into each well of microtiter plate. The plate was then incubated at 27° C. for 4 hrs for color development. After 4 hrs incubation, the OD values were determined at 490 nm using automatic microtiter plate reader (Bio-Rad).
# Pgp (LCC6MDR cells) = Pgp (LCC6MDR cells) (Homo sapiens, UniProt P08183); experiment: Cell proliferation assay: Pgp-modulating activity, reversal of anticancer drug resistance in LCC6MDR cells; conditions: for RF (Relative Fold), cpd at 0.5 μM: RF = (IC50 without modulator)/(IC50 with 0.5 μM modulator); for RF (Relative Fold), cpd at 0.5 μM / RF (Relative Fold), cpd at 1 μM: paclitaxel; for RF (Relative Fold), cpd at 0.5 μM / EC50 / RF (Relative Fold), cpd at 1 μM: LCC6MDR; for EC50: EC50 of compounds for reversing anticancer drug resistance (nM); for Therapeutic index: IC50 of compounds for L929/EC50 of compounds for lowering paclitaxel drug resistance; for RF (Relative Fold), cpd at 1 μM: RF = (IC50 without modulator)/(IC50 with 1.0 μM modulator)
# Experimental: Cell Proliferation Assay. 6,000 cells of LCC6 or LCC6MDR and anticancer drugs (paclitaxel, vinblastine, vincristine, doxorubicin and mitoxantrone) were mixed with or without modulators to a final volume of 200 μL in each well of 96-well plates. […] The plates were then incubated for 5 days at 37° C. […] IC50 values were calculated from the dose-response curves of MTS assays (Prism 4.0).
# [3] = Tumor cell line cytotoxicity of flavonoid dimers, LCC6; type: cell-based, human; conditions: human, LCC6 cells, IC50 of compound alone
# Experimental: as §1
# [4] = system: Ld39 promastigotes (SSG-resistant); experiment: In vitro anti-promastigote activity, Ld39; type: cell-based, Leishmania donovani; conditions: Leishmania donovani, 72 h, read-out: Anti-promastigotes activity (IC50, μM) Ld39
# Experimental: as §2, §3
# Raw264.7 cells = experiment: Cytotoxicity, mouse macrophage Raw264.7; type: cell-based; conditions: Mus musculus, RAW264.7, 72 h
# Experimental: (a) Mouse Macrophage Raw 264.7 and Primary Mouse PEM Cells. The cytotoxicity assay of reference antileishmanial compounds and the compounds of this invention was performed against mouse macrophage cell line, Raw 264.7 and primary mouse PEM cells in order to calculate the therapeutic index (IC50 value for cytotoxicity of the compounds divided by IC50 value for antileishmanial activity of the compounds). The cells were grown in supplemented DMEM media in an atmosphere of 95% air with 5% CO2 at 37° C. In brief, Raw264.7 cells and PEM cells were seeded into 96-well flat bottom microtiter plate at 1×10^4cells and 2×10^4 cells per well in a final volume of 100 μL media, respectively. A graded dose of flavonoid dimers or antileishmanials was added into wells. The plate was incubated at 37° C. for 72 hrs at the atmosphere 5% CO2 in the air. The % of survivors was determined.
# [5] = Tumor cell line cytotoxicity of flavonoid dimers, LCC6MDR; type: cell-based, human; conditions: human, LCC6MDR cells, IC50 of compound alone
# Experimental: as §1
# Chain of Pgp (LCC6MDR cells) (P08183 whole entry): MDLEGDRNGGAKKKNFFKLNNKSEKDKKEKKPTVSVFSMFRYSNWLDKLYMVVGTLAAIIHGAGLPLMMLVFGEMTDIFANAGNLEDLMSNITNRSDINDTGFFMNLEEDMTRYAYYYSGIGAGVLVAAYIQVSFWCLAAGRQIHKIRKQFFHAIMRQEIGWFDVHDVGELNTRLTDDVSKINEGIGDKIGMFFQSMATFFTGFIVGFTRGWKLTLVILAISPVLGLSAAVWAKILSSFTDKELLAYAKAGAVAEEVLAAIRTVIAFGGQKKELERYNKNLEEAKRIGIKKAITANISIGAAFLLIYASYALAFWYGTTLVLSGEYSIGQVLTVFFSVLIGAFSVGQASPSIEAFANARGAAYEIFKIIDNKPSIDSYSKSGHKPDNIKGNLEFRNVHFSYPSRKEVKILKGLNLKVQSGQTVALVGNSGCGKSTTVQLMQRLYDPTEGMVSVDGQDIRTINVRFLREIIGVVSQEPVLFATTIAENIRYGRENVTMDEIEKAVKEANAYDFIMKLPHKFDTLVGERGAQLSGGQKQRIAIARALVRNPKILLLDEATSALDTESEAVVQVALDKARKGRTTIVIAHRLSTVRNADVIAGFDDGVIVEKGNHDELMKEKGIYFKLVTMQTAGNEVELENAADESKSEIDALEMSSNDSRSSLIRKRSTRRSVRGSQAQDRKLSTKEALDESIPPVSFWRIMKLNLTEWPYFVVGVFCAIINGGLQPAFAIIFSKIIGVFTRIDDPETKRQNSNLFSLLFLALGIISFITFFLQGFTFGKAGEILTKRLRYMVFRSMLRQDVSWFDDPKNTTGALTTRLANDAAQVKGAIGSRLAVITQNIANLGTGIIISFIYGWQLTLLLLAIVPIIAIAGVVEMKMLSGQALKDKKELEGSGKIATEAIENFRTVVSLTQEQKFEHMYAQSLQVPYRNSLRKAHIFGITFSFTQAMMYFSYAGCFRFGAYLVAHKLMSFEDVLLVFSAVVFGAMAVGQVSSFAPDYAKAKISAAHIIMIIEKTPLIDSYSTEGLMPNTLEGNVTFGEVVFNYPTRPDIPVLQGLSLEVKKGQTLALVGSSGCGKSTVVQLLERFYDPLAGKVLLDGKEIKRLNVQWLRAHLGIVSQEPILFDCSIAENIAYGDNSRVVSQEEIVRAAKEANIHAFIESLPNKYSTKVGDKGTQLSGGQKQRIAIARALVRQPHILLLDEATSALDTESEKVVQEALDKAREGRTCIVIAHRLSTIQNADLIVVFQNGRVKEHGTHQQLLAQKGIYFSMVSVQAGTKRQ
Structure (SMILES),IC50 at 72 h [1] [µM],IC50 [2] [µM],"RF (Relative Fold), cpd at 0.5 μM (Pgp (LCC6MDR cells))",IC50 at 72 h [3] [µM],IC50 [4] [µM],IC50 (Raw264.7 cells) [µM],IC50 at 72 h [5] [µM],melting point [°C],EC50 (Pgp (LCC6MDR cells); Paclitaxel) [nM],Therapeutic index (Pgp (LCC6MDR cells)),"RF (Relative Fold), cpd at 1 μM (Pgp (LCC6MDR cells))",EC50 (Pgp (LCC6MDR cells); Daunorubicin) [nM],EC50 (Pgp (LCC6MDR cells); Doxorubicin) [nM],EC50 (Pgp (LCC6MDR cells); Mitoxantrone) [nM],"EC50 (Pgp (LCC6MDR cells); Vinblasinte, vinblastine) [nM]",EC50 (Pgp (LCC6MDR cells); Vincristine) [nM]
"CS(=O)(=O)N(CCOCCOc1ccc(-c2cc(=O)c3ccccc3o2)cc1)CCOCCOc1ccc(-c2cc(=O)c3ccccc3o2)cc1 [Compound 24, 1,13-Bis[4′-(4H-chromen-4-on-2-yl)phenyl]-N-(methanesulfonyl)-1,4,10,13-tetraoxa-7-azamidecane]",13.4 ± 3.9,0.5,(12.8),27.5 ± 8.4,1.5,96 ± 4,42.6 ± 5.4,–,–,–,–,–,–,–,–,–
"CN(C)c1cccc2c(S(=O)(=O)N(CCOCCOc3ccc(-c4cc(=O)c5ccccc5o4)cc3)CCOCCOc3ccc(-c4cc(=O)c5ccccc5o4)cc3)cccc12 [Compound 25b, 1,13-Bis[4′-(4H-chromen-4-on-2-yl)phenyl]-7-(dansyl)-1,4,10,13-tetraoxa-7-azamidecane]",–,–,(1.4),> 100,–,–,> 100,72 to 74,–,–,–,–,–,–,–,–
"O=c1cc(-c2ccc(OCCOCCN(CCCc3ccccc3)CCOCCOc3ccc(-c4cc(=O)c5ccccc5o4)cc3)cc2)oc2ccccc12 [Compound 26, 1,13-Bis[4′-(4H-chromen-4-on-2-yl)phenyl]-N-(3-phenylpropyl)-1,4,10,13-tetraoxa-7-azamidecane]",9.5,8.9,(12.5),> 100,18.4,85,> 100,–,250,38.0,–,–,–,–,–,–
"O=c1cc(-c2ccc(OCCOCCN(CCOCCOc3ccc(-c4cc(=O)c5ccccc5o4)cc3)Cc3ccc(F)cc3)cc2)oc2ccccc12 [Compound 34, 1,13-Bis[4′-(4H-chromen-4-on-2-yl)phenyl]-7-(4-fluorobenzyl)-1,4,10,13-tetraoxa-7-azamidecane]",19.7,–,(31.2),> 100,–,–,> 83,119 to 122,255 ± 5,77.3,–,–,–,–,–,–
"O=c1cc(-c2ccc(OCCOCCN(CCOCCOc3ccc(-c4cc(=O)c5ccccc5o4)cc3)Cc3ccc(F)c(F)c3)cc2)oc2ccccc12 [Compound 38, 1,13-Bis[4′-(4H-chromen-4-on-2-yl)phenyl]-7-(3,4-difluorobenzyl)-1,4,10,13-tetraoxa-7-azamidecane]",42.2 ± 2.1,–,(49.3),32.5 ± 11,–,–,33.6 ± 4.3,96 to 98,–,–,–,–,–,–,–,–
"O=c1cc(-c2ccc(OCCOCCN(CCOCCOc3ccc(-c4cc(=O)c5ccccc5o4)cc3)Cc3ccc4c(c3)OCO4)cc2)oc2ccccc12 [Compound 42e, 1,13-Bis[4′-(4H-chromen-4-on-2-yl)phenyl]-7-(5-piperonyl)-1,4,10,13-tetraoxa-7-azamidecane]",> 100,–,(31.2),> 100,–,–,> 100,69 to 70,204 ± 20,>490.2,(117.8),–,–,–,–,–
"O=c1cc(-c2ccc(OCCOCCN(CCOCCOc3ccc(-c4cc(=O)c5ccccc5o4)cc3)Cc3ccc(Cl)cc3)cc2)oc2ccccc12 [Compound 49, 1,13-Bis[4′-(4H-chromen-4-on-2-yl)phenyl]-7-(4-chlorobenzyl)-1,4,10,13-tetraoxa-7-azamidecane]",> 78,–,(41.4),> 100,–,–,> 100,81 to 82,177 ± 14,>440.7,(95.7),–,–,–,–,–
"O=c1cc(-c2ccc(OCCOCCN(CCOCCOc3ccc(-c4cc(=O)c5ccccc5o4)cc3)Cc3ccc(-c4ccccc4)cc3)cc2)oc2ccccc12 [Compound 57, 1,13-Bis[4′-(4H-chromen-4-on-2-yl)phenyl]-7-(4-phenylbenzyl)-1,4,10,13-tetraoxa-7-azamidecane]",> 69,–,(102.1),> 99,–,–,> 62,106 to 107,72 ± 21,>958.3,(117.8),76 ± 14,94 ± 1,65 ± 19,38 ± 10,83 ± 12
"O=c1cc(-c2ccc(OCCOCCN(CCOCCOc3ccc(-c4cc(=O)c5ccccc5o4)cc3)Cc3cccc4ccccc34)cc2)oc2ccccc12 [Compound 59, 1,13-Bis[4′-(4H-chromen-4-on-2-yl)phenyl]-7-(1-naphthalenylmethyl)-1,4,10,13-tetraoxa-7-azamidecane]",> 100,–,(2.2),> 100,–,–,> 100,96 to 97,–,–,(80.6),–,–,–,–,–
"O=C(c1ccccc1)c1ccc(CN(CCOCCOc2ccc(-c3cc(=O)c4ccccc4o3)cc2)CCOCCOc2ccc(-c3cc(=O)c4ccccc4o3)cc2)cc1 [Compound 61, 1,13-Bis[4′-(4H-chromen-4-on-2-yl)phenyl]-7-(4-benzoylbenzyl)-1,4,10,13-tetraoxa-7-azamidecane]",> 100,–,(1.9),> 91,–,–,> 100,71 to 72,–,–,(30.0),–,–,–,–,–
"O=c1cc(-c2ccc(OCCOCCN(CCOCCOc3ccc(-c4cc(=O)c5ccccc5o4)cc3)Cc3ccncn3)cc2)oc2ccccc12 [Compound 64e, 1,13-Bis[4′-(4H-chromen-4-on-2-yl)phenyl]-7-(4-pyrimidinylmethyl)-1,4,10,13-tetraoxa-7-azamidecane]",> 50,–,(8.3),> 50,–,–,> 50,–,–,–,(61.2),–,–,–,–,–
"O=c1cc(-c2ccc(OCCOCCN(CCOCCOc3ccc(-c4cc(=O)c5ccccc5o4)cc3)Cc3ccnc4ccccc34)cc2)oc2ccccc12 [Compound 64f, 1,13-Bis[4′-(4H-chromen-4-on-2-yl)phenyl]-7-(4-quinolinylmethyl)-1,4,10,13-tetraoxa-7-azamidecane]",> 100,–,(15.9),> 100,–,–,> 100,–,–,–,(69.6),–,–,–,–,–
"O=c1cc(-c2ccc(OCCOCCN(CCOCCOc3ccc(-c4cc(=O)c5ccccc5o4)cc3)Cc3ccc4ccccc4n3)cc2)oc2ccccc12 [Compound 64g, 1,13-Bis[4′-(4H-chromen-4-on-2-yl)phenyl]-7-(2-quinolinylmethyl)-1,4,10,13-tetraoxa-7-azamidecane]",8.5 ± 2.3,–,(66.6),> 100,–,–,> 100,–,–,–,(102.1),–,–,–,–,–
"O=c1cc(-c2ccc(OCCOCCN(CCOCCOc3ccc(-c4cc(=O)c5ccccc5o4)cc3)c3ccccc3)cc2)oc2ccccc12 [Compound 64h, 1,13-Bis[4′-(4H-chromen-4-on-2-yl)phenyl]-7-(phenyl)-1,4,10,13-tetraoxa-7-azamidecane]",> 100,–,(11.6),> 100,–,–,> 100,–,–,–,(72.9),–,–,–,–,–
